This note sets out measurements from patent US20180344702A1, “METHODS FOR TREATING PATIENTS WITH HEMATOLOGIC MALIGNANCIES” (Aptose Biosciences, Inc., priority 2017, published 2018).

Common to all, as to format: cell-based
Assay [1] deals with Jeko-1. Nature of the assay: Cytotoxicity, MTS cell viability. The conditions noted are these: Homo sapiens, 72 h, MCL, 3 days MTS. As to the method:
(§1) Cells were seeded in a 96 well plate and treated with either vehicle (DMSO) or compound 7 at 10 different concentrations for 3 days at 37° C. and 5% CO2. Cell viability was assessed using CellTiter 96 AQueous one solution (MTS Promega Cat#G3581), and IC50 values calculated using GraphPad Prism 7 software.
(§2) Cytotoxicity procedure: Cells were seeded in 96-well plate and treated with vehicle DMSO or Compound 7 at a specified concentration and incubated for 72 hours.

Assay [2] relates to Raji. Nature of the assay: Cytotoxicity, MTS cell viability. Conditions: Burkitt's, 3 days MTS. As to the method: as §1, §2
The test system of assay [3] is Daudi. The assay is described as follows: Cytotoxicity, MTS cell viability. The conditions noted are these: Homo sapiens, 72 h, Burkitt's, 3 days MTS. On the procedure:
as §1, §2

The test system of assay [4] is MEC-1. The assay is described as follows: Cytotoxicity, MTS cell viability. Conditions: CLL, 3 days MTS. As to the method: as §1, §2
The test system of assay [5] is Mino. The assay is described as follows: Cytotoxicity, MTS cell viability. Conditions: Homo sapiens, 72 h, MCL, 3 days MTS. As to the method: as §1, §2
In assay [6] the test system is RL. The assay is described as follows: Cytotoxicity, MTS cell viability. The conditions noted are these: Homo sapiens, 72 h, DLBCL / GCB-DLBCL, 3 days MTS. As to the method:
as §1, §2

Assay [7] concerns SU-DHL6. The assay is described as follows: Cytotoxicity, MTS cell viability. The conditions noted are these: Homo sapiens, SU-DHL-6, 72 h, DLBCL / GCB-DLBCL, 3 days MTS. On the procedure: as §1, §2
For assay [8], the system named is EOL-1. The assay is described as follows: Cytotoxicity in high serum conditions (MTS). Conditions: EOL-1, 72 hours, 10% vs 30%, 50%, 80% FBS. On the procedure: Compound 7 was tested in a dose-dependent manner at different serum concentrations. […] In this experiment, MV4-11 (n=6) and EOL-1(n=3˜6) cells were treated with or without Compound 7 for 72 hours in medium containing normal (10%) or high serum (30%, 50%, 80%) FBS with an MTS assay serving as an end point.

The structures appear in SMILES notation.

A word on the IC50: it is the concentration that gives 50% inhibition. A lower IC50 goes with inhibition by little substance. `Cc1cnc(-c2ccc(-c3ccc(NC(=O)Nc4c(F)cc(F)cc4F)cc3F)c3c2C(=O)NC3)[nH]1` [Compound 7, 1-{3-fluoro-4-[7-(5-methyl-1H-imidazol-2-yl)-1-oxo-2,3-dihydro-1H-isoindol-4-yl]-phenyl}-3-(2,4,6-trifluorophenyl)urea]: the half-inhibitory concentration (IC50) in assay [1] is 0.0738 µM; in assay [2], 2.03 µM; in assay [2] (Homo sapiens, 72 h) it was 2.03 µM; in assay [3], 0.166 µM; in assay [4], 3.8 µM; in assay [4] (Homo sapiens, MEC1, 72 h), 3.8 µM. For the same molecule, the concentration for half-maximal inhibition (IC50) in assay [5] is 0.00598 µM; in assay [6], 0.426 µM; in assay [7] it was 0.122 µM. Also, in assay [8], the “Activity at high serum concentration” value is listed as “retains high activity at high serum concentration”.
